Patent US8962810B2, “Macrocyclic heterocyclic compound for inhibiting hepatitis C virus and preparation and use thereof” (AB Pharma Ltd., priority 2011, dated 2015)

target: T1, HCV Protease (HCV NS3-4A) (Hepatitis C virus genotype 1a, UniProt P27958); test: HCV Protease (HCV NS3-4A) anti-activity assay, fluorescence quenching (FRET); type: biochemical
T1 construct: HCV Protease: HCV NS3-4A, self-prepared; made in house
Method: Method of HCV Protease (HCV NS3-4A) Anti-Activity Assay:
HCV Protease (HCV NS3/4A) anti-activity was measured by an inter fluorescence quenching system. EDANS group and DABCYL group were bonded on each side of a peptide. When protein cleavage started, fluorescence quenching of EDANS by DABCYL was detected. We used a high throughput screening model for HCV NS3/4A protease inhibitors, the tested drugs were prepared with 5 different concentrations, positive control and negative control were set in the same time. In the optimized reaction system, fluorescence were determined at ex=355, em=520 by a Polarstar fluorescence detector. Calculate the inhibition rate of each concentration; calculate the half maximal inhibitory concentration (IC50) with the method of Reed-Muench.
Materials: HCV Protease: HCV NS3-4A, self-prepared, stored at −70. HCV Protease substrate (FRET-S): Ac-Asp-Glu-Asp(EDANS)-Glu-Glu-Abu-ψ-[COO]-Ala-Ser-Lys-(DABCYL)-NH2, supplied by AnaSpec USA, prepared of 100 μM by DMSO, distributed and stored at −20 without light. Buffer solution: 30 mM NaCl, 5 mM CaCl2, 10 mM DTT, 50 mM Tris (pH7.8).
Instrument: fluorescence detector Polarstar from Germany Company BMG
Preparation and operation: preparation of 10 mg/mL by DMSO, dilute of 10000, 2000, 400, 80, 16 ng/mL as tested concentrations by buffer solutions, adding 20 μL into each well, the total reaction system is 200 μL, to make the final concentrations of 1000, 200, 40, 8, 1.6 ng/mL. Add 140 μL buffer solution, 20 μL drug solution, 20 μL HCV protease, and 20 μL FRET-S substrate with final concentration of 0.25 μM into 96-well fluorescence microtiterplate, the reaction started at 37, set control wells of protease-substrate reaction and of isolate substrate and isolate protease, fluorescence signals were detected by fluorescence detector (ex=355,em=520). Calculate the inhibition rates of samples for each concentration by comparison of fluorescence value of sample in each well and the fluorescence control value of enzyme, calculate the half maximal inhibitory concentration (IC50) of samples to HCV protease with the method of Reed-Muench.
THF and Et2O were distilled from sodium metal and benzophenone. DCM, pentane and hexane were distilled form calcium hydride. Special raw materials and intermediates in the invention were supplied by Zannan SciTech Co. for ordered processing, Ltd. in Shanghai, others reagents were purchased from Shanghai reagent company, Aldrich, Acros etc. If intermediates or products of synthesis were not enough for the next step of reaction, the synthesis shall be repeated until it is sufficient. The HCV protease (HCV NS3-4A) inhibitory activity assays in the present invention were performed by relevant cooperation service units of China Institutes for Biological Science in Beijing.

T1 sequence (P27958 1658-1711): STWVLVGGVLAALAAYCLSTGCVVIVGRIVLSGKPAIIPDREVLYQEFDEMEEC
T1 sequence (P27958 1027-1657): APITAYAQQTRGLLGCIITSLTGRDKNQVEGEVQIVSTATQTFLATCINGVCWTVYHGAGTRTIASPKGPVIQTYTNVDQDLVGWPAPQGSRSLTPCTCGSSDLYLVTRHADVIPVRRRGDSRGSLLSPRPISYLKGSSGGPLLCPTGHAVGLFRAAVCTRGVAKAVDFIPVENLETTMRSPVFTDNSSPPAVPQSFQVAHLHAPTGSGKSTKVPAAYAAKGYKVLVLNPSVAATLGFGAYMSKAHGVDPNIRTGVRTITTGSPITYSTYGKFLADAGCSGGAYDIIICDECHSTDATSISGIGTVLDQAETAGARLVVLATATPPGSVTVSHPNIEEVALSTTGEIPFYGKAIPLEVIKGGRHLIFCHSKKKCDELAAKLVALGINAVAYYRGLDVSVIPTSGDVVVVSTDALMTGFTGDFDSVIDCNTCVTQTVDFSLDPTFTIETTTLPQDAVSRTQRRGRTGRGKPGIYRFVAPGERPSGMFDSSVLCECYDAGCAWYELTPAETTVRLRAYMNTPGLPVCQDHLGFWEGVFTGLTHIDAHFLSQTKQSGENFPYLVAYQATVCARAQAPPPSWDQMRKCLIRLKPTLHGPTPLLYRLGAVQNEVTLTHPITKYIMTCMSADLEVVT

| IC50 | SMILES |
| --- | --- |
| 51 to 300 nM | CC[C@H]1C[C@@]1(NC(=O)C1C[C@@H]2CN1C(=O)[C@H](C(C)(C)C)NC(=O)OCC(C)(C)CCCCOC(=O)c1ccc3c(c1)CN(C3)C(=O)O2)C(=O)NS(=O)(=O)C1CC1 (stereo partly shown) [Compound 15br] |
| 51 to 300 nM | CCC1CC1(NC(=O)C1CC2CN1C(=O)C(C(C)(C)C)NC(=O)OCC(C)(C)CCCCCOC(=O)c1ccc3c(c1)CN(C3)C(=O)O2)C(=O)NS(=O)(=O)C1CC1 (stereo not shown) [Compound 15bs] |
| 0.1 to 5 nM | C=CC1CC1(NC(=O)C1CC2CN1C(=O)C(C(C)(C)C)NC(=O)OCCCC=Cc1c3c(cc4c1OCO4)CN(C3)C(=O)O2)C(=O)NS(=O)(=O)C1CC1 (stereo not shown) [Compound 15bt] |
| 0.1 to 5 nM | C=C[C@H]1C[C@@]1(NC(=O)C1C[C@@H]2CN1C(=O)[C@H](C(C)(C)C)NC(=O)OCCCC/C=C\c1c3c(cc4c1OCO4)CN(C3)C(=O)O2)C(=O)NS(=O)(=O)C1CC1 (stereo partly shown) [Compound 15bu] |
| 0.1 to 5 nM | C=C[C@H]1C[C@@]1(NC(=O)C1C[C@@H]2CN1C(=O)[C@H](C(C)(C)C)NC(=O)OCC(C)(C)CC/C=C\c1c3c(cc4c1OCO4)CN(C3)C(=O)O2)C(=O)NS(=O)(=O)C1CC1 (stereo partly shown) [Compound 15bv] |
| 0.1 to 5 nM | CC[C@H]1C[C@@]1(NC(=O)C1C[C@@H]2CN1C(=O)[C@H](C(C)(C)C)NC(=O)OCCCC/C=C\c1c3c(cc4c1OCO4)CN(C3)C(=O)O2)C(=O)NS(=O)(=O)C1CC1 (stereo partly shown) [Compound 15bw] |
| 0.1 to 5 nM | CC[C@H]1C[C@@]1(NC(=O)C1C[C@@H]2CN1C(=O)[C@H](C(C)(C)C)NC(=O)OCCCCCCc1c3c(cc4c1OCO4)CN(C3)C(=O)O2)C(=O)NS(=O)(=O)C1CC1 (stereo partly shown) [Compound 15bx] |
| 0.1 to 5 nM | CC[C@H]1C[C@@]1(NC(=O)C1C[C@@H]2CN1C(=O)[C@H](C(C)(C)C)NC(=O)OCC(C)(C)CCCCc1c3c(cc4c1OCO4)CN(C3)C(=O)O2)C(=O)NS(=O)(=O)C1CC1 (stereo partly shown) [Compound 15by] |
| 0.1 to 5 nM | C=C[C@H]1C[C@@]1(NC(=O)C1C[C@@H]2CN1C(=O)[C@H](C(C)(C)C)NC(=O)OCC1(CC/C=C/COc3cccc4c3CN(C4)C(=O)O2)CC1)C(=O)NS(=O)(=O)C1CC1 (stereo partly shown) [Compound 15c] |
| 0.1 to 5 nM | CC[C@H]1C[C@@]1(NC(=O)C1C[C@@H]2CN1C(=O)[C@H](C(C)(C)C)NC(=O)OCC1(C/C=C/CSc3cccc4c3CN(C4)C(=O)O2)CC1)C(=O)NS(=O)(=O)C1CC1 (stereo partly shown) [Compound 15ca] |
| 0.1 to 5 nM | CC[C@H]1C[C@@]1(NC(=O)C1C[C@@H]2CN1C(=O)[C@H](C(C)(C)C)NC(=O)OCC(C)(C)C/C=C/CSc1cccc3c1CN(C3)C(=O)O2)C(=O)NS(=O)(=O)C1CC1 (stereo partly shown) [Compound 15cb] |
| 0.1 to 5 nM | CC[C@H]1C[C@@]1(NC(=O)C1C[C@@H]2CN1C(=O)[C@H](C(C)(C)C)NC(=O)OCCC/C=C/CSc1cccc3c1CN(C3)C(=O)O2)C(=O)NS(=O)(=O)C1CC1 (stereo partly shown) [Compound 15cc] |
| 0.1 to 5 nM | CC[C@H]1C[C@@]1(NC(=O)C1C[C@@H]2CN1C(=O)[C@H](C(C)(C)C)NC(=O)OCC(C)(C)CCCCN(C)c1cccc3c1CN(C3)C(=O)O2)C(=O)NS(=O)(=O)C1CC1 (stereo partly shown) [Compound 15cd] |
| 0.1 to 5 nM | C=C[C@H]1C[C@@]1(NC(=O)C1C[C@@H]2CN1C(=O)[C@H](C(C)(C)C)NC(=O)OCC1(CCCCCOc3cccc4c3CN(C4)C(=O)O2)CC1)C(=O)NS(=O)(=O)C1CC1 (stereo partly shown) [Compound 15d] |
| 0.1 to 5 nM | CC[C@H]1C[C@@]1(NC(=O)C1C[C@@H]2CN1C(=O)[C@H](C(C)(C)C)NC(=O)OCC1(CCCCOc3cccc4c3CN(C4)C(=O)O2)CC1)C(=O)NS(=O)(=O)C1CC1 (stereo partly shown) [Compound 15e] |
| 0.1 to 5 nM | CC[C@H]1C[C@@]1(NC(=O)C1C[C@@H]2CN1C(=O)[C@H](C(C)(C)C)NC(=O)OCC1(C/C=C/COc3cccc4c3CN(C4)C(=O)O2)CC1)C(=O)NS(=O)(=O)C1CC1 (stereo partly shown) [Compound 15f] |

| IC50 | SMILES |
| --- | --- |
| 0.1 to 5 nM | C=C[C@H]1C[C@@]1(NC(=O)C1C[C@@H]2CN1C(=O)[C@H](C(C)(C)C)NC(=O)OCC1(C/C=C/COc3cccc4c3CN(C4)C(=O)O2)CC1)C(=O)NS(=O)(=O)C1CC1 (stereo partly shown) [Compound 15g] |
| 5.1 to 50 nM | CC[C@H]1C[C@@]1(NC(=O)C1C[C@@H]2CN1C(=O)[C@H](C(C)(C)C)NC(=O)OCC(C)(C)C/C=C/COc1c(OC)ccc3c1CN(C3)C(=O)O2)C(=O)NS(=O)(=O)C1CC1 (stereo partly shown) [Compound 15h] |
| 0.1 to 5 nM | C=C[C@H]1C[C@@]1(NC(=O)C1C[C@@H]2CN1C(=O)[C@H](C(C)(C)C)NC(=O)OCCCC/C=C/COc1c(OC)ccc3c1CN(C3)C(=O)O2)C(=O)NS(=O)(=O)C1CC1 (stereo partly shown) [Compound 15j] |
| 0.1 to 5 nM | C=C[C@H]1C[C@@]1(NC(=O)C1C[C@@H]2CN1C(=O)[C@H](C(C)(C)C)NC(=O)OCCC/C=C/COc1c(OC)ccc3c1CN(C3)C(=O)O2)C(=O)NS(=O)(=O)C1CC1 (stereo partly shown) [Compound 15k] |
| 5.1 to 50 nM | CCC1CC1(NC(=O)C1CC2CN1C(=O)C(C(C)(C)C)NC(=O)OCCC=CCOc1c(OC)ccc3c1CN(C3)C(=O)O2)C(=O)NS(=O)(=O)C1CC1 (stereo not shown) [Compound 15m] |
| 0.1 to 5 nM | C=C[C@H]1C[C@@]1(NC(=O)C1C[C@@H]2CN1C(=O)[C@H](C(C)(C)C)NC(=O)OCC/C=C/COc1c(OC)ccc3c1CN(C3)C(=O)O2)C(=O)NS(=O)(=O)C1CC1 (stereo partly shown) [Compound 15n] |
| 0.1 to 5 nM | C=CC1CC1(NC(=O)C1CC2CN1C(=O)C(C(C)(C)C)NC(=O)OCC(C)(C)CC=CCOc1c(OC)ccc3c1CN(C3)C(=O)O2)C(=O)NS(=O)(=O)C1CC1 (stereo not shown) [Compound 15p] |
| 5.1 to 50 nM | CC[C@H]1C[C@@]1(NC(=O)C1C[C@@H]2CN1C(=O)[C@H](C(C)(C)C)NC(=O)OCCCC/C=C/COc1c(OC)ccc3c1CN(C3)C(=O)O2)C(=O)NS(=O)(=O)C1CC1 (stereo partly shown) [Compound 15q] |
| 0.1 to 5 nM | CC[C@H]1C[C@@]1(NC(=O)C1C[C@@H]2CN1C(=O)[C@H](C(C)(C)C)NC(=O)OCC(C)(C)CC/C=C/COc1cccc3c1CN(C3)C(=O)O2)C(=O)NS(=O)(=O)C1CC1 (stereo partly shown) [Compound 15r] |
| 0.1 to 5 nM | CCC1CC1(NC(=O)C1CC2CN1C(=O)C(C(C)(C)C)NC(=O)OCC(C)(C)CCCCOc1cccc3c1CN(C3)C(=O)O2)C(=O)NS(=O)(=O)C1CC1 (stereo not shown) [Compound 15u] |
| 0.1 to 5 nM | CCC1CC1(NC(=O)C1CC2CN1C(=O)C(C(C)(C)C)NC(=O)OCC(C)(C)CCCCCOc1cc(OC)cc3c1CN(C3)C(=O)O2)C(=O)NS(=O)(=O)C1CC1 (stereo not shown) [Compound 15v] |
| 0.1 to 5 nM | CC[C@H]1C[C@@]1(NC(=O)C1C[C@@H]2CN1C(=O)[C@H](C(C)(C)C)NC(=O)OCCCCCCOc1cccc3c1CN(C3)C(=O)O2)C(=O)NS(=O)(=O)C1CC1 (stereo partly shown) [Compound 15w] |
| 0.1 to 5 nM | CC[C@H]1C[C@@]1(NC(=O)C1C[C@@H]2CN1C(=O)[C@H](C(C)(C)C)NC(=O)OCCCCCCCOc1cccc3c1CN(C3)C(=O)O2)C(=O)NS(=O)(=O)C1CC1 (stereo partly shown) [Compound 15x] |
| 5.1 to 50 nM | CCC1CC1(NC(=O)C1CC2CN1C(=O)C(C(C)(C)C)NC(=O)OCCCCCCCCOc1cccc3c1CN(C3)C(=O)O2)C(=O)NS(=O)(=O)C1CC1 (stereo not shown) [Compound 15y] |
| 5.1 to 50 nM | CC[C@H]1C[C@@]1(NC(=O)C1C[C@@H]2CN1C(=O)[C@H](C(C)(C)C)NC(=O)OCCCCCCCCCOc1cccc3c1CN(C3)C(=O)O2)C(=O)NS(=O)(=O)C1CC1 (stereo partly shown) [Compound 15z] |
